For 14 compounds, IC50 results are on record in patent US20240150368A1, “ULK INHIBITORS AND METHODS OF USE THEREOF” (Deciphera Pharmaceuticals, LLC, priority 2022, published 2024).

One test addresses T1, LRRK2 kinase (Homo sapiens, UniProt Q5S007).
T1 construct: (residues 970-2528; ID NO; 3); purchased Thermo Fisher
Kind of test: Biochemical assay for LRRK2 (coupled pyruvate kinase/lactate dehydrogenase assay). Particulars: 26.4 nM LRRK2, 1 mM ATP; read-out: LRRK2 (inhibition of LRRK2 kinase activity, IC50). Here is the method:
Biochemical Assay for LRRK2 (SEQ. ID NO. 3)
(§1) Activity of LRRK2 kinase was determined spectroscopically using a coupled pyruvate kinase/lactate dehydrogenase assay that continuously monitors the ATP hydrolysis-dependent oxidation of NADH (e.g., Schindler et al. Science (2000) 289: 1938-1942). Assays were conducted in 384-well plates (100 μL final volume) using 26.4 nM LRRK2 (Thermo Fisher), 0.1 mM peptide substrate (RLGRDKYKTLRQIRQ), 1.5 units pyruvate kinase, 2.1 units lactate dehydrogenase, 1 mM phosphoenol pyruvate, 0.28 mM NADH and 1 mM ATP in assay buffer (100 mM Tris, pH 7.5, 15 mM MgCl2, 0.5 mM DTT, 0.004% (w/v) BSA, and 0.004% Triton X-100). Inhibition of LRRK2 was measured by adding serial diluted test compound (final assay concentration of 1% DMSO). A decrease in absorption at 340 nm was monitored continuously for 6 h at 30° C. on a multi-mode microplate reader (BioTek). The reaction rate was calculated using the 2-3 h time frame. The reaction rate at each concentration of compound was converted to percent inhibition using controls (i.e., reaction with no test compound and reaction with a known inhibitor) and IC50 values were calculated using software routines in Prism (GraphPad software).

Another test deals with T2, ULK1 kinase (Homo sapiens, UniProt O75385, E37A/K38A).
T2 construct: (residues 1-283; ID NO: 1); purchased Beryllium
T2 sequence (O75385 1-283 E37A/K38A): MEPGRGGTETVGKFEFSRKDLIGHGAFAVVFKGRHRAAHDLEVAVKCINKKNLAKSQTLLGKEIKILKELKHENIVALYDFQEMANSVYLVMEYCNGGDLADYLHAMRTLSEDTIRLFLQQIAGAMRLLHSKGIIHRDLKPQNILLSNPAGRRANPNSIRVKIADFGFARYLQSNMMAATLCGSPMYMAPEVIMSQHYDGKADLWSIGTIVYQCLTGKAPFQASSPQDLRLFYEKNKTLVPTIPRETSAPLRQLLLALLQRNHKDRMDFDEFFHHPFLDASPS
The test is described as follows: Biochemical assay for ULK1 (coupled pyruvate kinase/lactate dehydrogenase assay). Conditions: 1 mM ATP, 0.1 nM ULK1; read-out: ULK1 (inhibition of biochemical activity), IC50. The method, then:
Biochemical Assay for ULK1 (SEQ. ID NO: 1)
as §1, with “ULK1” for “LRRK2”, “0.1” for “26.4”, “ULK1 (from Beryllium), 0.075” for “LRRK2 (Thermo Fisher), 0.1”, “(YANWLAASIYLDGKKK),” for “(RLGRDKYKTLRQIRQ),”

Test [1] concerns ULK kinase substrate ATG13 (pS318-ATG13) in A549 (KRAS mutant) cells. The test is described as follows: pATG13 levels of mutant KRas A549 cells after treatment with ULK inhibitors in combination with trametinib (ELISA). It counts as cell-based, human. The method, then: Cellular Inhibition of ULK Kinase Substrate ATG13 Protein pATG13 Levels of Mutant KRas A549 Cells after Treatment with ULK Inhibitors in Combination with Trametinib
(§2) A549 (KRAS mutant) human lung cancer cells (6,000 cells/well) were added to a 384-well tissue-culture treated plate in 50 μL of pre-warmed DMEM medium supplemented with 10% characterized fetal bovine serum (Invitrogen, Carlsbad, CA), 100 units/mL penicillin G, and 100 μg/mL streptomycin and allowed to grow overnight at 37° C., 5% CO2, and 95% humidity. The following day, 10 μL of media containing trametinib or DMSO as a control was added to wells. The final concentration of trametinib in wells was 250 nM. A dose response of a test compound (0.6 μL per well) was added. DMSO (0.6 μL) was added to control wells. The plate was briefly shaken to mix wells and then incubated at 37° C. overnight. The next day, the media was aspirated and cells were washed with Dulbecco's Phosphate Buffered Saline (Gibco). Cells were lysed using MPER lysis buffer (Pierce, Rockford, IL) containing Halt Phosphatase and Protease Inhibitors (Pierce, Rockford, IL) and Phosphatase inhibitor cocktail 2 (Sigma, St. Louis, MO) at 4° C. for 10 min with shaking.
(§3) Cellular levels of phospho-Serine 318 ATG13 (pATG13) were measured via an ELISA method. Total ATG13 Antibody (Cell Signaling Cat #13273) was used to coat the wells. The plate was incubated at 4° C. overnight and washed with ELISA wash buffer (Biolegend Cat #421601). The wells were then blocked with assay diluent (Biolegend Cat #421203) for 1 h at rt. Plate wells were washed with ELISA wash buffer. Cell lysate was added to wells and incubated at rt for 2 h. Plate wells were washed with ELISA wash buffer. Biotinylated pS318-ATG13 antibody (Rockland Immunochemicals Cat #600-401-C49) was diluted in assay diluent and added to each well and incubated at rt for 1 h. Plate wells were washed with ELISA wash buffer. Streptavidin linked to horseradish peroxidase (Thermo Fisher Cat #21140) was diluted in assay diluent and added to each well and incubated at rt for 1 h. Plate wells were washed with ELISA wash buffer. High sensitivity TMB substrate (Biolegend Cat #421101) was added to each well and incubated at rt for 20 min. The reaction was stopped with 2N Sulfuric Acid. The plate was analyzed at on a plate reader measuring absorbance at 450 nm and 540 nm (background). Signal was calculated by first subtracting the background absorbance at 540 nm from the absorbance at 450 nm for each well. Next, the background corrected absorbance at 450 nm from blank wells was subtracted from test wells. Data was compared to control wells to determine % ATG13 phosphorylation. GraphPad Prism was used to calculate IC50 values.

Test [2] deals with ULK kinase substrate ATG13 (pS318-ATG13) in MiaPaCa-2 cells. The test is described as follows: pATG13 levels of mutant KRas MiaPaCa-2 cells after treatment with ULK inhibitors in combination with trametinib (ELISA). It counts as cell-based, human. Here is the method:
pATG13 Levels of Mutant KRas MiaPaCa-2 Cells after Treatment with ULK Inhibitors in Combination with Trametinib
as §2, with “MiaPaCa-2” for “A549 (KRAS mutant)”, “pancreatic” for “lung”, “(10000” for “(6,000”, “G,” for “G, and”, “streptomycin, and 2.5% Horse Serum” for “streptomycin”, “minutes” for “min”
as §3, with “2.0N sulfuric acid.” for “2N Sulfuric Acid.”
In general terms: In an ELISA, binding on a coated surface is turned into a signal by an enzyme label.

Broadly, the IC50 is the concentration needed to halve the response being measured.

T1 sequence (Q5S007 with tags, fused parts or gaps): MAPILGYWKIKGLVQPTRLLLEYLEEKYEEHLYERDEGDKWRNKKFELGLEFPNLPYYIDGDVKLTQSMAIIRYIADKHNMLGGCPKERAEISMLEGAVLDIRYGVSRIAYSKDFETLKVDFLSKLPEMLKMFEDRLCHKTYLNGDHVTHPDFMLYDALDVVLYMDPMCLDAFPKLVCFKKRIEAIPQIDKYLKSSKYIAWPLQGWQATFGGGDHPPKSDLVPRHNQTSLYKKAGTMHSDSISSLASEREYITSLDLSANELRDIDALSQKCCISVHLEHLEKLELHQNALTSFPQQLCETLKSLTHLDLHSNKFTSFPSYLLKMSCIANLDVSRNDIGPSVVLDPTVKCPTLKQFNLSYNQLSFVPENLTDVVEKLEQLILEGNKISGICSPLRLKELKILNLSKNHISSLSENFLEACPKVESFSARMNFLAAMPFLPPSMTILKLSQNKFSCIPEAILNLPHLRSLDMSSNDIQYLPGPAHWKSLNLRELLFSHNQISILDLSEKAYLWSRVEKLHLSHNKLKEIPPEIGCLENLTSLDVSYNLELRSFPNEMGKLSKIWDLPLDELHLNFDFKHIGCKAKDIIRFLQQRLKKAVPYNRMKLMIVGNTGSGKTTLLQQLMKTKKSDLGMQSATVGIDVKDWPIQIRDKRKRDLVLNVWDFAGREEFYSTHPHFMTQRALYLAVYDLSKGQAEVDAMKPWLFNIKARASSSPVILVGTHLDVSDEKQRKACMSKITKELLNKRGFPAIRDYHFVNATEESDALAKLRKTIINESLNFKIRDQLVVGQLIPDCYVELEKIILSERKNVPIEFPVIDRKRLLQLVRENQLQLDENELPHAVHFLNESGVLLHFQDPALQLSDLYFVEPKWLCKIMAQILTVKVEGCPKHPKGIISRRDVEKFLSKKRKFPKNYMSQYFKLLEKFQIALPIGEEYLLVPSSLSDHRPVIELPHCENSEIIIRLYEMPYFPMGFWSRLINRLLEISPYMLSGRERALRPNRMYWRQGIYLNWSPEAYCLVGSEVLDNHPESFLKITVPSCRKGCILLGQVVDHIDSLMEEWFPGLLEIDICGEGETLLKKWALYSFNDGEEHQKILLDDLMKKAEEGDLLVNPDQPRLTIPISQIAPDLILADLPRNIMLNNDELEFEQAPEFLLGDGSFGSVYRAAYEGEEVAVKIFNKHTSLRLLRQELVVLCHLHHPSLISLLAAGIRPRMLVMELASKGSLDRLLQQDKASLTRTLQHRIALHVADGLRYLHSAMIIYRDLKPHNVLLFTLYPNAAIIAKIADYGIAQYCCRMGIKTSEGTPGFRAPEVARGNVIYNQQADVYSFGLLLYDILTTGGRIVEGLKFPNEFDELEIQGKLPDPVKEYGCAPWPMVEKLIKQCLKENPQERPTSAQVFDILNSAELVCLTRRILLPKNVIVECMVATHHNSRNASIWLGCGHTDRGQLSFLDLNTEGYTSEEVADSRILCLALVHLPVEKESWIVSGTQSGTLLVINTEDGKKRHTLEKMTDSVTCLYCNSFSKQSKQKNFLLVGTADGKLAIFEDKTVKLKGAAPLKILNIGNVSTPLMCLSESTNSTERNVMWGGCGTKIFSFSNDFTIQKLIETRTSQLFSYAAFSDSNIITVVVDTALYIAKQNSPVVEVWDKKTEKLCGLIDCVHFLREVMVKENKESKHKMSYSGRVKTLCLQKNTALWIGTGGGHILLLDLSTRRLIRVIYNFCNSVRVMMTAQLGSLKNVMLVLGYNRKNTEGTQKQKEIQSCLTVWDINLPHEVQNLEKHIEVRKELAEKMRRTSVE

Consider `CC/C(Nc1cnn(CC(F)F)c1)=C1/C(=O)Nc2ccc(C(=O)NCC3(C(F)(F)F)CC3)cc21` [Example 181], for which the IC50 on LRRK2 kinase is at most 100 nM; at ULK1 kinase it was at most 10 nM; in test [1], at most 100 nM.

As for `CC/C(Nc1cnn(C2CCN(C(C)C)CC2)c1)=C1/C(=O)Nc2ccc(C(=O)N(C)C)cc21` [Example 2, (Z)-3-(1-((1-(1-isopropylpiperidin-4-yl)-1H-pyrazol-4-yl)amino)propylidene)-N,N-dimethyl-2-oxoindoline-5-carboxamide], the IC50 in test [2] is 100 to 300 nM; at ULK1 kinase it was 100 to 500 nM; in test [1], above 600 nM.

Consider `CC/C(Nc1cnn(C2CCN(C3COC3)CC2)c1)=C1/C(=O)Nc2ccc(C(=O)NCC(C)C)cc21` [Example 35], for which the IC50 in test [2] was at most 100 nM; at ULK1 kinase it was at most 10 nM; in test [1], 300 to 600 nM.

With `CC/C(Nc1cnn(CC)c1)=C1/C(=O)Nc2ccc(C(=O)NCC3(C(F)(F)F)CC3)cc21` [Example 179], the IC50 is at most 100 nM at LRRK2 kinase, at most 10 nM at ULK1 kinase and at most 100 nM in test [1].

On to `CCCNC(=O)c1ccc2c(c1)/C(=C(\CC)Nc1cnn(C3CCN(C(C)C)CC3)c1)C(=O)N2` [Example 15], for which the IC50 in test [2] is at most 100 nM; on ULK1 kinase it was at most 10 nM; in test [1], at most 100 nM.

For `CC/C(Nc1cnn(C2CCN(CC(C)C)CC2)c1)=C1/C(=O)Nc2ccc(C(=O)NCC(C)C)cc21` [Example 38], the IC50 is at most 100 nM in test [2], at most 10 nM on ULK1 kinase and at most 100 nM in test [1].

Take `CC/C(Nc1ccc(N2CCN(C)CC2)cc1)=C1/C(=O)Nc2ccc(C(=O)NCCOC)cc21` [Example 11]: the IC50 in test [2] was at most 100 nM; on ULK1 kinase, 10 to 100 nM; in test [1] it was 300 to 600 nM.

Consider `CC/C(Nc1cnn(C2CCN(C(C)C)CC2)c1)=C1/C(=O)Nc2ccc(C(=O)NCC3CCC3)cc21` [Example 43], for which the IC50 in test [2] was at most 100 nM; at ULK1 kinase it was at most 10 nM; in test [1], at most 100 nM.

As for `CC/C(Nc1cnn(C2CCN(CCOC)CC2)c1)=C1/C(=O)Nc2ccc(C(=O)NCC(C)C)cc21` [Example 41], the 50% inhibitory concentration (IC50) in test [2] is at most 100 nM; on ULK1 kinase, at most 10 nM; in test [1], at most 100 nM.

Regarding `CC/C(Nc1cnn(C(F)F)c1)=C1/C(=O)Nc2ccc(C(=O)NCC3(C(F)(F)F)CC3)cc21` [Example 180], the IC50 is at most 100 nM at LRRK2 kinase, at most 10 nM on ULK1 kinase and 100 to 300 nM in test [1].

With `CC/C(Nc1cnn(C2CCN(CC3CCC3)CC2)c1)=C1/C(=O)Nc2ccc(C(=O)NCC(C)C)cc21` [Example 40], the IC50 in test [2] is at most 100 nM; on ULK1 kinase, at most 10 nM; in test [1], at most 100 nM.

Consider `CC/C(Nc1cnn(C2CCN(C3CCCC3)CC2)c1)=C1/C(=O)Nc2ccc(C(=O)NCC(C)C)cc21` [Example 33], for which the IC50 in test [2] is at most 100 nM; on ULK1 kinase, at most 10 nM; in test [1], at most 100 nM.

In the case of `CC/C(Nc1cnn(C2CCN(C3CCC3)CC2)c1)=C1/C(=O)Nc2ccc(C(=O)NCC(C)C)cc21` [Example 32], the figures for the IC50 (in test [2]; at ULK1 kinase; in test [1]) were at most 100 nM, at most 10 nM and at most 100 nM, respectively.

As to `CC/C(Nc1cccc(N2CCN(C(C)C)CC2)c1)=C1/C(=O)Nc2ccc(C(=O)NC[C@H]3CCCO3)cc21` [Example 46], the IC50 in test [2] is at most 100 nM; at ULK1 kinase it was 10 to 100 nM; in test [1], 100 to 300 nM.
